The values that follow come from patent publication US20250034127A1, “AUTOPHAGY INDUCING COMPOUNDS AND USES THEREOF, IN PARTICULAR FOR DISEASES OF THE CNS” (Samsara Therapeutics Inc., priority 2021, published 2025).

The assay concerns U2OS cell line stabling expressing RFP-eGFP-hLC3b. The assay is described as follows: Tandem reporter assay (autophagic flux). Type of assay: cell-based, human. As to conditions: RFP-only puncta as percentage of DMSO-treated control, 24 hours. As to the method:
Selected compounds of this invention were also assessed for their ability to stimulate autophagy using a U2OS cell line stabling expressing RFP-cGFP-hLC3b (a tandem reporter cell line).
During the process of autophagy, the cargo to be degraded is first enveloped by organelles called autophagosomes. These autophagosomes then fuse with lysosomes, causing them to become acidified and their digestive enzymes to become activated. The term “autophagic flux” is used to represent the dynamic process of autophagy: autophagic flux refers to the whole process of autophagy, including autophagosome formation, maturation, fusion with lysosomes, subsequent breakdown and the release of macromolecules back into the cytosol (Zhang X J, Chen S, Huang K X, Le W D. Why should autophagic flux be assessed? Acta Pharmacol Sin. 2013 May; 34 (5): 595-9. doi: 10.1038/aps.2012.184. Epub 2013 Mar. 11). Compounds that stimulate autophagic flux stimulate the dynamic process of autophagy (the whole process of autophagy).
LC3b is a protein found in the membrane of autophagosomes which has been used to generate genetic reporters of autophagy in cells. In these systems a tandem fusion of LC3b is engineered with two fluorescent proteins of different wavelengths: one which is acid sensitive (for example eGFP, which fluoresces green) and the other which is acid insensitive (for example RFP, which fluoresces red). Cells expressing RFP-cGFP-hLC3b can be examined using fluorescent microscopy: the autophagosomes present will fluoresce in both channels (either yellow in an overlay of both channels or puncta that are present in both the individual red and green channels) but the autolysosomes present will fluoresce in the RFP (red) channel only. Using a fluorescent microscope, the number of autophagosomes and autolysosomes can be counted, allowing for the monitoring of both the induction of autophagy (total puncta count) and the rate of autophagic flux (ratio of red-only to red-and-green puncta). The influence of small molecules on autophagy induction and flux can be assessed using this system by comparison to a non-treated control.
Representative Procedure: Human osteosarcoma U2OS cells stably expressing RFP-eGFP-hLC3b were seeded (10,000 cells/well) into a 96-well glass-bottom plate (Cell Carrier Ultra, Perkin Elmer) in DMEM Glutamax media (Gibco) supplemented with 10% Fetal Bovine Serum (FBS) and antibiotics (100 u/ml penicillin, 100 μg/ml streptomycin, Invitrogen), then incubated overnight in a humified atmosphere at 37° C. and 5% CO2. The cells were then treated with the compounds of interest, dissolved in DMSO, in a duplicated 5- or 10-point dose-response. 8 wells were treated with an equivalent volume of DMSO, 4 with […] torin-1 as a positive control (MCE) and 4 wells with 0.4 μM torin-1 plus 0.2 μM bafilomycin (MCE) as a control for flux inhibition. The cells were returned to the incubator and the treatment continued for 24 hours. After treatment, the media was aspirated off and the cells fixed with a solution of 4% formaldehyde+1% glutaraldehyde (Sigma) in dPBS (plus magnesium and calcium, Gibco). Fixation was allowed to proceed for 15 minutes at room temperature then the fixative solution discarded and replaced with PBS (Gibco) plus Hoescht 33342 (1 μg/ml, Sigma). After 30 minutes the plates were imaged on an Opera Phenix confocal microscope (Perkin-Elmer) using a 40× water objective, collecting using DAPI, mCherry and GFP channels. Cells were detected based upon the staining of their nuclei with DAPI using the Harmony image analysis software (Perkin-Elmer) and the number of autophagosomes (GFP and RFP puncta) and autolysosomes (RFP only puncta) per cell were counted using the spot picking function within the software.
(Reporter assays use an easily measured gene product as a stand-in for the process of interest.)

As for `CC1CC(N(C(=O)c2csc(-c3cnn(-c4ccccc4)c3)n2)C(C)C)CC(C)N1` (stereo not drawn) [Compound 298, N-(2,6-dimethylpiperidin-4-yl)-2-(1-phenyl-1H-pyrazol-4-yl)-N-(propan-2-yl)-1,3-thiazole-4-carboxamide], the “Autolysosome % DMSO activity (compound concentration of 1 μM)” value is recorded as 187% and the “Autolysosome % DMSO activity (compound concentration of 10 μM)” value is on record as 151%.
Turning to `C[C@H]1CN(C(=O)c2nc(-c3cnn(-c4ccccc4)c3)c[nH]2)CCN1` [Compound 279, (3S)-3-methyl-1-[5-(1-phenyl-1H-pyrazol-4-yl)-1H-imidazole-2-carbonyl]piperazine], the “Autolysosome % DMSO activity (compound concentration of 1 μM)” value is given as 123% and the “Autolysosome % DMSO activity (compound concentration of 10 μM)” value turned out to be 158%.
On to `CC1CC(N(C(=O)c2csc(-c3cnn(-c4ccccc4)c3)n2)C(C)C)CCN1` (stereo not drawn) [Compound 297, N-(2-methylpiperidin-4-yl)-2-(1-phenyl-1H-pyrazol-4-yl)-N-(propan-2-yl)-1,3-thiazole-4-carboxamide], for which the “Autolysosome % DMSO activity (compound concentration of 1 μM)” value was 109% and the “Autolysosome % DMSO activity (compound concentration of 10 μM)” value was 119%.
Take `CC(C)c1ccc(-n2cc(-c3nc(C(=O)N4CCN[C@@H](C)C4)cs3)cn2)cc1` [Compound 273, (3S)-3-methyl-1-(2-{1-[4-(propan-2-yl)phenyl]-1H-pyrazol-4-yl}-1,3-thiazole-4-carbonyl)piperazine]: the “Autolysosome % DMSO activity (compound concentration of 1 μM)” value turned out to be 224%.
With `C[C@H]1CN(C(=O)c2csc(-c3cnn(-c4ccc(C5CC5)cc4)c3)n2)CCN1` [Compound 266, (3S)-1-{2-[1-(4-cyclopropylphenyl)-1H-pyrazol-4-yl]-1,3-thiazole-4-carbonyl}-3-methylpiperazine], the “Autolysosome % DMSO activity (compound concentration of 1 μM)” value stood at 176% and the “Autolysosome % DMSO activity (compound concentration of 10 μM)” value worked out at 273%.
For the compound `C[C@H]1CN(C(=O)c2csc(-c3cnn(-c4ccc(C(C)(C)C)cc4)c3)n2)CCN1` [Compound 270, (3S)-1-{2-[1-(4-tert-butylphenyl)-1H-pyrazol-4-yl]-1,3-thiazole-4-carbonyl}-3-methylpiperazine], the “Autolysosome % DMSO activity (compound concentration of 1 μM)” value is listed as 251%.
In the case of `CC(C)N(C(=O)c1csc(-c2cnn(-c3ccccc3)c2)n1)[C@@H]1CN[C@H](C)C1` [Compound 299, N-[(3S,5R)-5-methylpyrrolidin-3-yl]-2-(1-phenyl-1H-pyrazol-4-yl)-N-(propan-2-yl)-1,3-thiazole-4-carboxamide], the “Autolysosome % DMSO activity (compound concentration of 1 μM)” value worked out at 162% and the “Autolysosome % DMSO activity (compound concentration of 10 μM)” value came out at 152%.
